Assay results as given in patent US9901097B2, “Agricultural and horticultural fungicidal composition” (Nippon Soda Co., Ltd., priority 2011, dated 2018).
Like-named read-outs stand apart in the source and are kept apart here.

How the values were obtained:
[1] = tested on: Botrytis cinerea; assay: Sterilization test (growth inhibition of Botrytis cinerea in potato dextrose medium, 96-well microplate, turbidity 405 nm); type: cell-based; conditions: for inhibition at 0.1 ppm: drug I alone 0.1 ppm; for inhibition at 10 ppm: drug II alone 10 ppm
Description: The solutions thus obtained were mixed to prepare fungicidal compositions.
Conidia of Botrytis cinerea were added to and dispersed in a potato dextrose culture medium. A fungicidal composition was added thereto and mixed. This was dispensed in a 96-well microplate and cultured at 20° C. for 3 days in a dark setting. Then, the turbidity was measured at a wavelength of 405 nm in a microplate reader. From comparison with the measured value of turbidity in the case of non-treatment (without the addition of the fungicidal composition), the growth inhibition rate of Botrytis cinerea (%) was calculated. The test was carried out in duplicate. Further, the expected value of the growth inhibition was calculated based on Colby's equation.
(§1) In addition, the Colby's equation is E=M+N−MN/100. Here, E is the expected value of a growth inhibition rate (%), M is the growth inhibition rate (%) calculated from the measurement with the use of the drug I alone, and N is the growth inhibition rate (%) calculated from the measurement with the use of the drug II alone. Additionally, in Tables, the expected values with the use of the drug alone were not shown, because they were the same as the values calculated from the measurement.
At the concentrations shown in Tables 6 to 8, the drug I and the drug II were dissolved separately in dimethyl sulfoxide. The obtained solution was mixed to prepare a fungicidal composition.
Using the same methods as in Example 1 and Comparative Example 1, the sterilization test was carried out. Additionally, in Tables, the expected values with the use of the drug alone were not shown, because they were the same as the values calculated from the measurement.

[2] = tested on: cucumber gray mold disease pathogens (Botrytis cinerea); assay: Control test for cucumber gray mold disease (sprayed cucumber seedlings); type: in vivo; conditions: for pest or weed control at 10 ppm: drug I alone 10 ppm; for Control effect: Table 10; for pest or weed control at 100 ppm: drug II alone 100 ppm; for pest or weed control at 25 ppm: drug II alone 25 ppm; for pest or weed control at 400 ppm: drug II alone 400 ppm
Description: The drug I and the drug II were dissolved in an organic solvent and a surfactant, and the prepared mixed emulsifiable concentrate was diluted with water to a predetermined concentration, and sprayed to cucumber seedlings that had been cultivated in unglazed pots (cultivar “Sagamihanjiro” cotyledon stage). Additionally, in Tables, the symbol A indicating the drug I represents a nitrogen-containing heterocyclic compound represented by the formula (A), the symbol B indicating the drug I represents a nitrogen-containing heterocyclic compound represented by the formula (B), and the symbol C indicating the drug I represents a nitrogen-containing heterocyclic compound represented by the formula (C). Further, the number indicating the drug II represents each of the compounds described in the numbers described above. Additionally, “-” in Tables represents that the drug was not used.
After air-drying at room temperature, a suspension of the conidia of cucumber gray mold disease pathogens (Botrytis cinerea) was inoculated by dropwise addition and held in a dark room at 20° C. with a high humidity for 3, 4, or 5 days. By investigation on the state of lesion appearance in leaves with comparison with a non-treatment case, the controlling effect was determined. The test was carried out in duplicate. In addition, the expected value of the controlling effect was calculated based on Colby's equation.
(§2) At the same time, in Comparative Example, in the case of using the drug I only and the case of using the drug II only, the test was carried out by the same method.
as §1, with “Additionally,” for “In addition,”, “the controlling effect” for “a growth inhibition rate”, “controlling effect” for “growth inhibition rate”, “were” for “were not shown, because they were”, “measurement, and were thus not shown.” for “measurement.”

[3] = tested on: cucumber powdery mildew disease pathogens (Sphaerotheca fuliginea); assay: Control test for cucumber powdery mildew disease (sprayed cucumber seedlings); type: in vivo; conditions: held 7 days after inoculation
Description: The drug I and the drug II were dissolved in an organic solvent and a surfactant, and the prepared mixed emulsifiable concentrate was diluted with water to a predetermined concentration, and sprayed to cucumber seedlings that had been cultivated in unglazed pots (cultivar “Sagamihanjiro”, cotyledon stage). Additionally, in Tables, the symbol A indicating the drug I represents a nitrogen-containing heterocyclic compound represented by the formula (A), the symbol B indicating the drug I represents a nitrogen-containing heterocyclic compound represented by the formula (B), and the symbol C indicating the drug I represents a nitrogen-containing heterocyclic compound represented by the formula (C). Further, in Tables, the number indicating the drug II represents each of the compounds described in the numbers described above. Additionally, “-” in Tables represents that the drug was not used.
After air-drying at room temperature, the conidia of cucumber powdery mildew disease pathogens (Sphaerotheca fuliginea) was inoculated by shaking off and held in a warm room for 7 days. By investigation on the state of lesion appearance in leaves with comparison with a non-treatment case, the controlling effect was determined. The test was carried out in duplicate. In addition, the expected value of the controlling effect was calculated based on Colby's equation.
as §2
as §1, with “Additionally,” for “In addition,”, “the controlling effect” for “a growth inhibition rate”, “controlling effect” for “growth inhibition rate”, “were” for “were not shown, because they were”, “measurement, and were thus not shown.” for “measurement.”

[4] = Botrytis cinerea, Example 1 (Tables 1-5), read-out: Growth inhibition rate
[5] = Botrytis cinerea, Example 2 (Tables 6-8), read-out: Growth inhibition rate
[6] = Botrytis cinerea, 72 h, read-out: Control effect (%), 3 days after inoculation
[7] = Botrytis cinerea, 96 h, read-out: Control effect (%), 4 days after inoculation
[8] = Botrytis cinerea, 120 h, read-out: Control effect (%), 5 days after inoculation
[9] = Botrytis cinerea, 120 h, read-out: Control effect, Table 10, 5 days after inoculation
[10] = Botrytis cinerea, 96 h, read-out: Control effect, Table 9, 4 days after inoculation
[11] = Botrytis cinerea, 96 h, read-out: Control effect, Table 11, 4 days after inoculation
[12] = Example 1 (Tables 1-5), drug II alone 0.02 ppm
[13] = 5 days after inoculation, drug II alone 1.6 ppm
[14] = Botrytis cinerea, 120 h, 5 days after inoculation, read-out: Control effect (%)

## CC1(C)CN=C(c2cnc3ccccc3c2)c2cccc(F)c2O1 [A]
[1]; [4]
  inhibition at 0.1 ppm: 19%
[1]; [5]
  inhibition at 0.1 ppm: 20%
[2]; [6]
  pest or weed control at 10 ppm: 52%
[2]; [7]
  pest or weed control at 10 ppm: 37%
[2]; [8]
  pest or weed control at 10 ppm: 60%
[2]; [9]
  pest or weed control at 10 ppm: 43%
[3]; drug I alone 10 ppm
  Control effect (%): 40%

## Cc1nc2c(F)cccc2cc1Oc1cccc(F)c1C(C)(C)O [B]
[1]; [4]
  inhibition at 0.1 ppm: 19%
[1]; [5]
  inhibition at 0.1 ppm: 18%
[2]; [6]
  pest or weed control at 10 ppm: 54%
[2]; [7]
  pest or weed control at 10 ppm: 37%
[2]; [10]
  pest or weed control at 10 ppm: 50%
[2]; [11]
  pest or weed control at 10 ppm: 78%
[2]; [8]
  pest or weed control at 10 ppm: 64%
[2]; [9]
  pest or weed control at 10 ppm: 44%
[3]; drug I alone 10 ppm
  Control effect (%): 60%

## Cc1nc2c(F)c(F)ccc2cc1Oc1cccc(F)c1C(C)(C)O [C]
[1]; [4]
  inhibition at 0.1 ppm: 19%
[1]; [5]
  inhibition at 0.1 ppm: 21%
[2]; [6]
  pest or weed control at 10 ppm: 54%
[2]; [7]
  pest or weed control at 10 ppm: 19%
[2]; [10]
  pest or weed control at 10 ppm: 51%
[2]; [11]
  pest or weed control at 10 ppm: 76%
[2]; [8]
  pest or weed control at 10 ppm: 67%
[2]; [9]
  pest or weed control at 10 ppm: 47%
[3]; drug I alone 10 ppm
  Control effect (%): 30%

## CC(=O)O.CC(=O)O.CC(=O)O.NC(N)=NCCCCCCCCNCCCCCCCCN=C(N)N [Drug 4, Iminoctadine acetate]
[1]; [12]
  Growth inhibition rate: 27%
[2]; [13]
  Control effect: 0%
[2]; 5 days after inoculation, drug II alone 6.3 ppm
  Control effect: 41%

## CCCCCCCCCCCCc1ccc(S(=O)(=O)O)cc1.CCCCCCCCCCCCc1ccc(S(=O)(=O)O)cc1.CCCCCCCCCCCCc1ccc(S(=O)(=O)O)cc1.NC(N)=NCCCCCCCCNCCCCCCCCN=C(N)N [Drug 5, Iminoctadine albesilate]
[1]; [12]
  Growth inhibition rate: 6%
[2]; 5 days after inoculation, drug II alone 0.4 ppm
  Control effect: 0%
[2]; [13]
  Control effect: 0%

## COC(=O)NCc1cc(/C(C)=N/OCc2cccc(C)n2)ccc1Cl [Drug 29, Pyribencarb]
[1]; Botrytis cinerea, Example 1 (Tables 1-5), drug II alone 0.02 ppm, read-out: Growth inhibition rate
  inhibition at 0.02 ppm: 22%
[2]; Botrytis cinerea, 96 h, 4 days after inoculation, drug II alone 0.4 ppm, read-out: Control effect (%)
  pest or weed control at 0.4 ppm: 0%
[2]; Botrytis cinerea, 96 h, 4 days after inoculation, drug II alone 1.6 ppm, read-out: Control effect (%)
  pest or weed control at 1.6 ppm: 0%
[2]; Botrytis cinerea, 96 h, 4 days after inoculation, drug II alone 6.3 ppm, read-out: Control effect (%)
  pest or weed control at 6.3 ppm: 37%

## Cn1nnnc1/C(=N\OCc1cccc(NC(=O)OC(C)(C)C)n1)c1ccccc1 [Drug 38]
[1]; [4]
  inhibition at 10 ppm: 9%
[2]; Botrytis cinerea, 96 h, Table 9, 4 days after inoculation, read-out: Control effect
  pest or weed control at 100 ppm: 0%

## C/C(=N\C#N)N(C)Cc1ccc(Cl)nc1 [Drug 42, Acetamiprid]
[1]; [5]
  inhibition at 10 ppm: 0%
[2]; Botrytis cinerea, 96 h, 4 days after inoculation, read-out: Control effect (%)
  pest or weed control at 25 ppm: 0%
[2]; [14]
  pest or weed control at 400 ppm: 0%

## C[C@@H]1[C@@H](c2ccc(Cl)cc2)SC(=O)N1C(=O)NC1CCCCC1 [Drug 43, Hexythiazox]
[1]; [5]
  inhibition at 10 ppm: 0%
[2]; [11]
  pest or weed control at 400 ppm: 2%
[2]; [8]
  pest or weed control at 100 ppm: 0%
  pest or weed control at 400 ppm: 0%

## CCc1ccc(C(=O)NN(C(=O)c2cc(C)cc(C)c2)C(C)(C)C)cc1 [Drug 44, Tebufenozide]
[1]; [5]
  inhibition at 10 ppm: 0%
[2]; Botrytis cinerea, 96 h, Table 11, 4 days after inoculation, read-out: Control effect
  pest or weed control at 400 ppm: 22%
[2]; [14]
  pest or weed control at 400 ppm: 0%

## CCCCc1c(C)nc(NCC)nc1OS(=O)(=O)N(C)C [Drug 60, Bupirimate]
[2]; [6]
  pest or weed control at 25 ppm: 0%
[3]; drug II alone 6.3 ppm
  Control effect (%): 10%
[3]; drug II alone 25 ppm
  Control effect (%): 50%

## Cc1cc(C(F)(F)F)nn1CC(=O)N1CCC(c2nc(C3=NOC(c4c(F)cccc4F)C3)cs2)CC1 (centres unmarked) [Drug 61]
[2]; Botrytis cinerea, 72 h, 3 days after inoculation, drug II alone 6.3 ppm, read-out: Control effect (%)
  pest or weed control at 6.3 ppm: 0%
[2]; Botrytis cinerea, 72 h, 3 days after inoculation, read-out: Control effect (%)
  pest or weed control at 100 ppm: 0%
[3]; drug II alone 6.3 ppm
  Control effect (%): 0%
